Experimental findings from patent US9469617B2, “Molecules having certain pesticidal utilities, and intermediates, compositions, and processes related thereto” (priority 2014, dated 2016) are described below.

Holding throughout (type): in vivo
In data set [1] the test system is Beet Armyworm (BAW) (Spodoptera exigua). As to the kind of experiment: Bioassay on Beet Armyworm (BAW), 128-well diet tray assay. The settings on record: 168 h, 50 μg/cm^2 on artificial diet, second instar larvae, five to seven days, 25° C., read-out: BAW % Control (or Mortality) rating. The essentials:
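Artificial diet was surface-treated with 50 μg/cm^2 compound in 90:10 acetone-water and dried, then infested with one to five second-instar larvae per well. Trays were held 5–7 days at 25° C, 14:10 light-dark. Percent mortality was averaged over eight wells.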

Data set [2] has as its system Green Peach Aphid (GPA) (Myzus persicae). As to the kind of experiment: Bioassay on Green Peach Aphid (GPA), foliar spray on cabbage seedlings. As to conditions: 72 h, 200 ppm foliar spray on cabbage seedlings, graded after three days, Abbott corrected % control, read-out: GPA % Control (or Mortality) rating. As to the method: Certain molecules disclosed in this document were tested against GPA using procedures described in the following example. In the reporting of the results, the “GPA & YFM Rating Table” was used (See Table Section).
Cabbage seedlings grown in 3-inch pots, with 2-3 small (3-5 cm) true leaves, were used as test substrate. The seedlings were infested with 20-50 GPA (wingless adult and nymph stages) one day prior to chemical application. Four pots with individual seedlings were used for each treatment. Test compounds (2 mg) were dissolved in 2 mL of acetone/MeOH (1:1) solvent, forming stock solutions of 1000 ppm test compound. The stock solutions were diluted 5× with 0.025% Tween 20 in water to obtain the solution at 200 ppm test compound. A hand-held aspirator-type sprayer was used for spraying a solution to both sides of […] leaves until runoff. Reference plants (solvent check) were sprayed with the diluent only containing 20% by volume of acetone/MeOH (1:1) solvent. Treated plants were held in a holding room for three days at approximately 25° C. and ambient relative humidity (RH) prior to grading. Evaluation was conducted by counting the number of live aphids per plant under a microscope. Percent Control was measured by using Abbott's correction formula (W. S. Abbott, “A Method of Computing the Effectiveness of an Insecticide” J. Econ. Entomol. 18 (1925), pp. 265-267) as follows. Corrected % Control=100*(X−Y)/X where X=No. of live aphids on solvent check plants and Y=No. of live aphids on treated plants. The results are indicated in the table entitled “Table ABC: Assay Results” and “Table ABCD: Assay Results” (See Table Section).

Data set [3] relates to Cabbage Looper (CL) (Trichoplusia ni). As to the kind of experiment: Bioassay on Cabbage Looper (CL), 128-well diet tray assay. As to conditions: 168 h, 50 μg/cm^2 on artificial diet, second instar larvae, five to seven days, 25° C., read-out: CL % Control (or Mortality) rating. The procedure, abridged: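 Second-instar larvae (one to five per well) placed on artificial diet treated with 50 μg/cm^2 compound in 90:10 acetone-water, dried, eight wells per compound. Held at 25 °C, 14:10 light-dark for five to seven days; percent mortality per well, averaged over the eight wells.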

Data set [4] has as its system Yellow Fever Mosquito (YFM) (Aedes aegypti). As to the kind of experiment: Bioassay on Yellow Fever Mosquito (YFM) larvae, 96-well plate. The settings on record: about 1 day-old larvae, master plate 4000 ppm in DMSO diluted, scored on mortality after 3 days. The procedure, abridged:
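Compounds from 4000 ppm DMSO master solutions, diluted in 90:10 water:acetone, dispensed into wells and infested with about 1-day-old larvae in liver-powder water. Held covered at room temperature for 3 days, then each well scored for mortality; 6 replicate plates per master.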

Where two headings read alike, the source gives them in different places.

Take `CC(C)(C)OC(=O)NC1Cc2ccc(-c3ncn(-c4ccc(OC(F)(F)F)cc4)n3)cc2C1` (stereo not shown) [C1, tert-butyl (5-(1-(4-(trifluoromethoxy)phenyl)-1H-1,2,4-triazol-3-yl)-2,3-dihydro-1H-inden-2-yl)carbamate]: the mortality at 50 µg/cm2 in data set [1] (Table ABCD) and in data set [3] (Table ABCD) was 50 to 100% each time. Further, the mortality at 200 ppm in data set [2] (Table ABCD) was 0 to 80%. The “YFM % Control (or Mortality) rating” value in data set [4] (Table ABCD) is recorded as “A (80-100)”.
Regarding `Cc1ccc(C(C)C)c(N2C(=O)CS/C2=N\C(=O)NC2Cc3ccc(-c4ncn(-c5ccc(OC(F)(F)F)cc5)n4)cc3C2)c1` (stereo not shown) [F2, (Z)-1-(3-(2-isopropyl-5-methylphenyl)-4-oxothiazolidin-2-ylidene)-3-(5-(1-(4-(trifluoromethoxy)phenyl)-1H-1,2,4-triazol-3-yl)-2,3-dihydro-1H-inden-2-yl)urea], the mortality at 50 µg/cm2 in data set [1] (Table ABC) and in data set [3] (Table ABC) was 50 to 100% throughout. In addition, the mortality at 200 ppm in data set [2] (Table ABC) is 0 to 80%. The “YFM % Control (or Mortality) rating” value in data set [4] (Table ABC) is given as “A (80-100)”.
As for `Cc1ccc(C(C)C)c(N2C(=O)CS/C2=N\C(=O)NC2Cc3ccc(-c4ncn(-c5ccc(OC(F)(F)C(F)(F)F)cc5)n4)cc3C2)c1` (stereo not shown) [F4, (Z)-1-(3-(2-Isopropyl-5-methylphenyl)-4-oxothiazolidin-2-ylidene)-3-(5-(1-(4-(perfluoroethoxy)phenyl)-1H-1,2,4-triazol-3-yl)-2,3-dihydro-1H-inden-2-yl)urea], the mortality at 50 µg/cm2 in data set [1] (Table ABC) and in data set [3] (Table ABC) was 50 to 100% throughout. For the same molecule, the mortality at 200 ppm in data set [2] (Table ABC) fell in the range of 0 to 80%. In addition, the “YFM % Control (or Mortality) rating” value in data set [4] (Table ABC) is given as “A (80-100)”.
Consider `CCc1ccccc1N1C(=O)CS/C1=N\C(=O)NC1Cc2ccc(-c3ncn(-c4ccc(OC(F)(F)F)cc4)n3)cc2C1` (stereo not shown) [F12, (Z)-1-(3-(2-Ethylphenyl)-4-oxothiazolidin-2-ylidene)-3-(5-(1-(4-(trifluoromethoxy)phenyl)-1H-1,2,4-triazol-3-yl)-2,3-dihydro-1H-inden-2-yl)urea], for which the mortality at 50 µg/cm2 in data set [1] (Table ABC) and in data set [3] (Table ABC) was 50 to 100% in each case. Moreover, the mortality at 200 ppm in data set [2] (Table ABC) was 0%. Besides, the “YFM % Control (or Mortality) rating” value in data set [4] (Table ABC) was “A (80-100)”.
As to `CCCc1ccc(C)cc1N1C(=O)CS/C1=N\C(=O)NC1Cc2ccc(-c3ncn(-c4ccc(OC(F)(F)F)cc4)n3)cc2C1` (stereo not shown) [F13, (Z)-1-(3-(5-Methyl-2-propylphenyl)-4-oxothiazolidin-2-ylidene)-3-(5-(1-(4-(trifluoromethoxy)phenyl)-1H-1,2,4-triazol-3-yl)-2,3-dihydro-1H-inden-2-yl)urea], the mortality at 50 µg/cm2 in data set [1] (Table ABC) and in data set [3] (Table ABC) was 50 to 100% in each case. Further, in data set [2] (Table ABC), the mortality at 200 ppm was in the range of 0 to 80%. In data set [4] (Table ABC), the “YFM % Control (or Mortality) rating” value is “A (80-100)”.
Consider `O=C(/N=C1\SCC(=O)N1c1ccccc1C1CC1)NC1Cc2ccc(-c3ncn(-c4ccc(OC(F)(F)F)cc4)n3)cc2C1` (stereo not shown) [F15, (Z)-1-(3-(2-Cyclopropylphenyl)-4-oxothiazolidin-2-ylidene)-3-(5-(1-(4-(trifluoromethoxy)phenyl)-1H-1,2,4-triazol-3-yl)-2,3-dihydro-1H-inden-2-yl)urea], for which the mortality at 50 µg/cm2 in data set [1] (Table ABC) and in data set [3] (Table ABC) was 50 to 100% throughout. The mortality at 200 ppm in data set [2] (Table ABC) is 0 to 80%. The “YFM % Control (or Mortality) rating” value in data set [4] (Table ABC) was “A (80-100)”.
Regarding `CC1S/C(=N\C(=O)NC2Cc3ccc(-c4ncn(-c5ccc(OC(F)(F)F)cc5)n4)cc3C2)N(c2ccccc2C(C)C)C1=O` (stereo not shown) [FA2, (Z)-1-(3-(2-isopropylphenyl)-5-methyl-4-oxothiazolidin-2-ylidene)-3-(5-(1-(4-(trifluoromethoxy)phenyl)-1H-1,2,4-triazol-3-yl)-2,3-dihydro-1H-inden-2-yl)urea], the mortality at 50 µg/cm2 in data set [1] (Table ABC) and in data set [3] (Table ABC) was 50 to 100% throughout. Also, the mortality at 200 ppm in data set [2] (Table ABC) lay within 0 to 80%. Also, in data set [4] (Table ABC), the “YFM % Control (or Mortality) rating” value was “A (80-100)”.

The term mortality denotes the share of the test organisms that died.
